Assay results reported in patent publication US6228853A, “Pyrrolopyrrolone derivatives as inhibitors of neutrophil elastase” (Glaxo Wellcome Inc., priority 1997, dated 2001).
Counter-ions that a name gives are not always drawn.

Columns and labels:
[1] = molecular target: T1, human neutrophil elastase (Homo sapiens, UniProt P08246); test: In vitro assay of human neutrophil elastase; type: biochemical; conditions: in vitro elastase test; purified human neutrophil elastase 11.8 nM, pH 8.6, 15 min at 30° C., 0.6 mM MeO-succinyl-alanyl-alanyl-prolyl-valyl-p-nitroanilide
T1 sequence (P08246 30-267): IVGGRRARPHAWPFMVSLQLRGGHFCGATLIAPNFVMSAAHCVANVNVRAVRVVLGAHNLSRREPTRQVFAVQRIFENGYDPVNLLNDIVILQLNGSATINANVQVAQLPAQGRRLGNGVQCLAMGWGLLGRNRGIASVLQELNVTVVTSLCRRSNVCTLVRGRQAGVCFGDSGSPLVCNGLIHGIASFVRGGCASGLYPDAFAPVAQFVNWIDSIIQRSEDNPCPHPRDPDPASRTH
Method: In vitro assays of human neutrophil elastase Assay contents: 50 mM Tris/HCl (pH 8.6) 150 mM NaCl 11.8 nM purified human neutrophil elastase Suitable concentrations of compound under test diluted with water from a 10 mM stock solution in dimethylsulphoxide. Values above are final concentrations after the addition of substrate solution (see below). The mixture above is incubated for fifteen minutes at 30° C. at which time the remaining elastase activity is measured for 10 minutes in a BioTek 340i plate-reader, after the addition of 0.6 mM MeO-succinyl-alanyl-alanyl-prolyl-valyl-p-nitroanilide. The rate of increase in absorbance at 405 nm is proportional to elastase activity. Enzyme activity is plotted against concentration of inhibitor and an IC50 determined using curve fitting software.

elastase = molecular target: T2, elastase (Homo sapiens, UniProt P08246); test: Human whole blood elastase inhibition assay; type: cell-based; conditions: heparinised, 30 minutes at 37° C.
T2 construct: fresh, heparinised human whole blood; endogenous in cells; host or cells: leukocytes (neutrophils) of fresh heparinised human whole blood
T2 sequence (P08246 30-267): T1 sequence (P08246 30-267)
Method: Human whole blood elastase inhibition assay
Triplicate aliquots of fresh, heparinised human whole blood (200 μl) are added to appropriately diluted samples (10 μl) of compounds under test. […] Samples are mixed thoroughly by pipette, and are then incubated for 30 minutes at 37° C. Cold red cell lysis buffer (750 μl of 155 mM ammonium chloride, 0.12 mM EDTA, 10 mM potassium bicarbonate, pH 7.4) is then added. Tubes are capped, inverted several times, and maintained at 4° C. for 15 minutes, inverting every 5 minutes. After centrifugation at 250 g for 10 minutes, at 4° C., the resulting pelleted cells are washed. The wash is with saline (300 μl), followed by centrifugation at 100 g for 10 minutes at 4° C. Pellets are washed twice more, before resuspension of the final cell pellet in buffer (200 μl of 100 mM Tris, 300 mM NaCl, 1% (w/v) HTAB, pH 8.6). Samples are stored at -20° C. After freeze-thawing of the samples four times, elastase activity is determined by a calorimetric assay in 50 mM Tris, 150 mM NaCl, 0.6 mM MeO-Succ-Ala-Ala-Ala-Pro-Val-pNA at pH 8.6, measuring the rate of increase in absorbance at 405 nm.

intracellular elastase = test: Oral in vivo hamster model using IL-8 induced lung infiltrates for assessment of intracellular elastase inhibition; conditions: in vivo hamster IL-8 test, at a dose of less than 10 mg/kg
Method: In vivo activity of inhibitors of human neutrophil elastase:
An oral in vivo model using IL-8 induced lung infiltrates for the assessment of intracellular elastase inhibition
Adult hamsters (100-150 g) are randomised into groups (n=4) and fasted overnight. Under gaseous anaesthetic (3% isofluorane) animals are dosed orally with 1 mL/100 g water as vehicle or containing predissolved compounds. Either at the same time, or subsequently under anaesthetic, animals are dosed intratracheally with 1 ug recombinant human IL-8 in 100 uL sterile saline. Six hours after IL-8 dosing animals are sacrificed using intraperitoneal pentobarbitone. The lungs are lavaged with 2×2.5 mL sterile saline and femurs are removed by dissection.
Intracellular elastase is prepared from neutrophils collected by lavage and from femoral bone marrow. This is achieved by sonication of the neutrophils and centrifugation to yield intracellular granules. These are disrupted by freeze/thawing and sonication. Elastase and myeloperoxidase assays are then performed on these samples to assess the efficacy of the compounds and to normalise for neutrophil recovery.

Structure (SMILES) | IC50 [1] [nM] | IC50 (elastase) [nM] | duration of action (intracellular elastase)
CC(C)[C@H]1C(=O)N(S(C)(=O)=O)[C@H]2CCN(C(=O)C3CN(Cc4ccccc4)C3)[C@H]12 (relative stereo) [Example 2, rel-(3R,3aR,6aS)-4-(1-Benzylazetidine-3-carbonyl)-3-isopropyl-1-methanesulfonyl-hexahydro-pyrrolo[3,2-b]pyrrol-2-one hydrochloride] | 229 | 810 | 
CCCCN1CC(C(=O)N2CC[C@H]3[C@H]2[C@@H](C(C)C)C(=O)N3S(C)(=O)=O)C1 (relative stereo) [Example 5, rel-(3R,3aR,6aS)-4-(1-Butyazetidine-3-carbonyl)-3-isopropyl-1-methanesulfonyl-hexahydro-pyrrolo[3,2-b]pyrrol-2-one hydrochloride] | 93 | 1700 | 
CC(C)[C@H]1C(=O)N(S(C)(=O)=O)[C@H]2CCN(C(=O)C3CN(Cc4c(Cl)cccc4Cl)C3)[C@H]12 (relative stereo) [Example 4, rel-(3R,3aR,6aS)-4-[1-(2,6-Dichloro-benzyl)-azetidine-3-carbonyl]-3-isopropyl-1-methanesulfonyl-hexahydropyrrolo[3,2-b]pyrrol-2-one hydrochloride] | 210 | 1200 | 
CC(C)[C@H]1C(=O)N(S(C)(=O)=O)[C@H]2CCN(C(=O)C3CN(CC(C)(C)C)C3)[C@H]12.Cl (relative stereo) [Example 3, rel-(3R,3aR,6aS)-4-[1-(2,2-Dimethyl-propyl)-azetidine-3-carbonyl]-3-isopropyl-1-methanesulfonyl-hexahydro-pyrrolo[3,2-b]pyrrol-2-one hydrochloride] |  |  | at least 6 hours
CC(C)[C@H]1C(=O)N(S(C)(=O)=O)[C@H]2CCN(C(=O)C3CN(CC4CC4)C3)[C@H]12 (relative stereo) [Example 1, rel-(3R,3aR,6aS)-4-(1-CyclopropyImethyl-azetidine-3carbonyl)-3-isopropyl-1-methanesulfonyl-hexahydropyrrolo[3,2-b]pyrrol-2-one hydrochloride] | 194 | 5400 | 
